The test system of test [1] is Tenebrio molitor. As to the kind of experiment: Growth inhibition of topically dosed Tenebrio molitor larvae assessed as duration of pupal instar stage at 120 ug measured every 24 hrs for 60 days. It is filed as functional.
Test [2] relates to Tenebrio molitor. As to the kind of experiment: Growth inhibition of topically dosed Tenebrio molitor larvae assessed as imaginal molt inhibition at 120 ug. It is filed as functional.

Consider 16 compounds from ChEMBL document CHEMBL1144788, “Insect growth regulatory effects of linear diterpenoids and derivatives from Baccharis thymifolia” (2008).

The Inhibition is the relative decrease from the control value, in per cent.

`CC(C)=CCC/C(=C\CC/C(=C\CCc1ccoc1)C(=O)O)C(=O)O`: the Activity in the test with Tenebrio molitor [1] is 10.7 days. The Inhibition in the test with Tenebrio molitor [2] is recorded as 33.6%. In the case of `CC(C)=CCC/C(=C\CC/C(=C\CCc1ccoc1)CO)CO`, the Activity in the test with Tenebrio molitor [1] was found to be 5.3 days. On the same count and under the same terms, the figure for `COC(=O)/C(=C/CCc1ccoc1)CC/C=C1\CC[C@H](C(C)(C)O)OC1=O` is 11.2 days. Same read-out and setting: the figure for `COC(=O)/C(=C\CC/C(=C\CCc1ccoc1)C(=O)OC)CC[C@@H](O)C(C)(C)O` is 11.2 days. Turning to `COC(=O)/C(=C/CC/C(=C\CCc1ccoc1)C(=O)OC)CCC=C(C)C`, the Activity in the test with Tenebrio molitor [1] came to 7.4 days. In addition, the Inhibition in the test with Tenebrio molitor [2] worked out at 34.3%. Regarding `CC(C)=CCC/C(=C/CC/C(=C\CCc1ccoc1)C(=O)O)C(=O)O`, in the test with Tenebrio molitor [1], the Activity was determined as 4.7 days. Same read-out and setting: for `COC(=O)/C(=C/CCc1ccoc1)CC/C=C(\CC[C@H](O)C(C)(C)O)C(=O)OC` the value was 12.1 days. Consider `COC(=O)/C(=C/CCc1ccoc1)CC/C=C(\CC[C@@H](O)C(C)(C)O)C(=O)OC`, for which, in the test on Tenebrio molitor [1], the Activity came to 12 days. Same read-out and setting: for `CC(C)=CCC[C@@](O)(CO)[C@@H]1CC[C@]2(CO1)OC2CCc1ccoc1` (single isomer, unassigned) the value was 10.6 days.

Turning to `CC(C)=CCC[C@](O)(CO)[C@H]1CC[C@@]2(CO1)OC2CCc1ccoc1` (single isomer, unassigned), in the test with Tenebrio molitor [1], the Activity worked out at 9.9 days. The Inhibition in the test with Tenebrio molitor [2] is on record as 30.8%. For `CC(C)=CCC/C(=C\CC/C(=C\CCC1=CCOC1=O)C(=O)O)C(=O)O`, in that order: 5.09 days and 24.1%. As for `COC(=O)/C(=C\CC/C(=C\CCc1ccoc1)C(=O)OC)CCC=C(C)C`, in the test with Tenebrio molitor [1], the Activity was 6 days. Same read-out and setting: the figure for `CC(C)=CCC[C@@](O)(CO)[C@@H]1CC/C(=C\CCc2ccoc2)CO1` is 12 days; for `COC(=O)/C(=C\CC/C(=C\CCc1ccoc1)C(=O)OC)CC[C@H](O)C(C)(C)O` it is 10 days. Take `CC(C)=CCC[C@](O)(CO)[C@H]1CC/C(=C\CCc2ccoc2)CO1`: the Activity in the test on Tenebrio molitor [1] stood at 16.2 days. Moreover, the Inhibition in the test on Tenebrio molitor [2] was 14.4%. With `CC(C)=CCC[C@@]1(CO)OC1CC[C@@]1(CO)OC1CCc1ccoc1` (single isomer, unassigned), in the test on Tenebrio molitor [1], the Activity was found to be 12.7 days.
